“And” between values parts separate entries of the source, which are not always exact repeats. Equal entries are not always repeated. Where two headings read alike, the source gives them in different places. Values belong to the compound of their own block, whether it stands above or below them.
Columns and labels:
[1] = taken from Fujita et al. (1964); cited from earlier work
MAO = MAO activity assay (membrane fraction of hamster liver mitochondria lysate); assay type: biochemical; settings: for IC50: read-out: MAO inhibition IC50
Experimental: (§1) Several of the synthesized compounds were tested for MAO and ALDH-2 suppression activity. The membrane and supernatant fractions of the lysate of a gradient purified hamster liver mitochondria preparation were used as sources of MAO and ALDH-2, respectively. ALDH-2 and MAO activity assays were performed according to established procedures (Rooke et al. (2000) J. Med. Chem. 43:4169).

ALDH-2 = target: T1, ALDH-2 (Mesocricetus auratus, UniProt P81178); assay: ALDH-2 activity assay (supernatant of hamster liver mitochondria lysate); assay type: biochemical; settings: for IC50: read-out: ALDH-2 inhibition IC50
T1 construct: membrane and supernatant fractions of the lysate of a gradient purified hamster liver mitochondria preparation; from tissue; host or cells: hamster liver mitochondria, supernatant fraction of the lysate
T1 sequence (P81178 20-519): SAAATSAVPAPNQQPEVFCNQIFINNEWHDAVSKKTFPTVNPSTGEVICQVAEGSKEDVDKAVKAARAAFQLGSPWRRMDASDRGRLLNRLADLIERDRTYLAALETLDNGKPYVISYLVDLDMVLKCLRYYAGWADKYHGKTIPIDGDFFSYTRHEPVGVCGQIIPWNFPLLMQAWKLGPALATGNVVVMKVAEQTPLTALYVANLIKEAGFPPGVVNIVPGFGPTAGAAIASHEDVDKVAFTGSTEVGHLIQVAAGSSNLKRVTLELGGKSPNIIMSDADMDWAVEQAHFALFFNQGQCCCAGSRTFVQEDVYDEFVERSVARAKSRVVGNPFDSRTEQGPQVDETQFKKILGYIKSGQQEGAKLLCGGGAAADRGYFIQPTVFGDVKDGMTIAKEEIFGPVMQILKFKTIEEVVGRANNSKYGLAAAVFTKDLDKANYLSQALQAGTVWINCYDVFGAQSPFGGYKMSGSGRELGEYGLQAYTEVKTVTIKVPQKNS
Experimental: as §1

golden hamsters = assay: Ethanol drinking experiments, two-bottle choice; assay type: in vivo; settings: 0.07 mmol/day/hamster for 5 consecutive days
Experimental: Effects of the newly synthesized analogs on hamster ethanol intake were determined according to the method described below. Animals were male adult golden hamsters (outbred, Lakeview Lak: LVG[SYR]), purchased from Charles River Laboratories, Wilmington, Mass. 01887 or Harlan Sprague Dawley, Inc., Indianapolis, Ind. 46229. Upon arrival, hamsters were housed in a room maintained at 23° C., 35-45% humidity, with a 12/12 hr light/dark cycle (light on 0600-1800 hr), ad libitum access to Purina Chow (5001) and a 15% v/v ethanol solution. After a week, each hamster was transferred to an individual stainless steel cage (26×18×17.5 cm). Two 50 ml drinking bottles, one containing water and the other a 15% ethanol solution, were provided continuously. The bottles were placed in holders equipped with tilted platforms which direct spillage to tubes placed outside of the cages. The positions of the two drinking bottles on each cage were altered daily to prevent development of positional preference. Fluid intake was measured at 0900 hr each day. Hamsters that drank significant (>8 ml/day) and consistent (daily variance <±20%) amounts of ethanol solution were selected for testing. To establish baseline ethanol and water intake, 1 ml sterile saline was administered daily to each hamster between 1500-1600 hr for 6 days (saline control period, Day 1 to Day 6). A daily dose of 0.07 mmol of test compound was then administered for 5 consecutive days (treatment period, Day 7 to Day 11). After the last dose, ethanol and water intake were monitored for another 6 days (post treatment period, Day 12 to Day 17). […] At an equivalent dose, daidzin suppressed ethanol intake by about 55% (Table 1).

[2] = test system: 5-HT metabolism in brain slices; assay: 5-HT metabolism in rat brain slices; assay type: cell-based
Description: (§2) The effects of daidzin on monoamine metabolism were studied in hamster and rat liver and brain using tissue slices using 5-HT as the substrate. The effects of ethanol drinking on 5-HT metabolism in hamster liver and brain were examined. Freshly removed tissues were cut into small pieces (about 1 mm cubes) with a tissue-slicer, suspended in ice-cold phosphate buffered saline (PBS) (0.1 g/ml), and forced through a mesh 40 stainless steel screen mounted on a Millipore Swinnex Filter Holder. The minced tissues were allowed to sediment on ice before PBS was removed using a Pasteur pipette. The tissue slices were washed 5 more times each with 10 volumes of ice-cold PBS. After the final wash, tissues were suspended in 1 volume of PBS and dispensed using a micro-pipette with tips of i.d.=2 mm. 5-HT metabolism catalyzed by the tissue slices was assayed in a 1 ml assay medium containing PBS, 1 μM 5-HT, 100:1 tissue slices, and specified concentrations of daidzin or ethanol. Reactions were initiated by the addition of tissues and allowed to proceed for 30 min at 37° C. in a shaking water bath. Reactions were terminated by addition of 0.1 ml ice-cold 1 M HClO4, and 10 mM EDTA. […] Contents of 5-HT, 5-HIAL, 5-HTOL and 5-HIAA in the supernatants were analyzed by HPLC as described before (Rooke et al. (2000) J. Med. Chem. 43:4169).

[3] = test system: 5-HT metabolism in brain slices; assay: 5-HT metabolism in hamster brain slices; assay type: cell-based
Description: as §2

[4] = Tissue distribution study, liver of hamsters on compound-Chow; assay type: in vivo, hamster
[5] = test system: Syrian golden hamsters (Meso cricetus auratus); assay: Oral potency: compound mixed in chow, two-bottle free-choice ethanol intake; assay type: in vivo; settings: for Ethanol intake reduced by: oral
Experimental: The oral potency of hexzein (7-O-ω-carboxypentyldaidzein) in reducing ethanol intake in Syrian golden hamsters (Meso cricetus auratus) was examined under a two-bottle free-choice protocol. Hexzein was mixed with Purina rodent meal (5755M) at 0 mg: 1 g (control), 2 mg: 1 g, 4 mg: 1 g, and 5 mg: 1 g ratios and the mixtures were pressed into 1×1×0.5 inch pellets. Food pellets, ethanol solution and water were provided continuously throughout the study and their intake were measured every day at 5 pm. Hexzein given in this manner did reduce ethanol intake. Ethanol intake in hamsters on 2 mg/g, 4 mg/g, and 5 mg/g hexzein-Chow were reduced by 18.3±3.8%, 47.8±7.4% and 56.5±5.4%, respectively.

[6] = test system: ethanol-preferring Syrian golden hamsters; settings: cited from earlier work
[7] = Urine [5-HTOL]/[5-HIAA] ratio after daidzin administration; assay type: in vivo; settings: dose that would suppress hamster ethanol intake by about 50%
rats = settings: cited from earlier work
[8] = test system: isolated rat liver mitochondria; settings: cited from earlier work
[9] = test system: 5-HT metabolism in rat liver slices; assay: 5-HT metabolism catalyzed by rat liver slices; assay type: cell-based
Description: (§3) The effects of daidzin on monoamine metabolism were studied in hamster and rat liver and brain using tissue slices using 5-HT as the substrate. The effects of ethanol drinking on 5-HT metabolism in hamster liver and brain were examined. Freshly removed tissues were cut into small pieces (about 1 mm cubes) with a tissue-slicer, suspended in ice-cold phosphate buffered saline (PBS) (0.1 g/ml), and forced through a mesh 40 stainless steel screen mounted on a Millipore Swinnex Filter Holder. The minced tissues were allowed to sediment on ice before PBS was removed using a Pasteur pipette. The tissue slices were washed 5 more times each with 10 volumes of ice-cold PBS. After the final wash, tissues were suspended in 1 volume of PBS and dispensed using a micro-pipette with tips of i.d.=2 mm. 5-HT metabolism catalyzed by the tissue slices was assayed in a 1 ml assay medium containing PBS, 1 μM 5-HT, 100:1 tissue slices, and specified concentrations of daidzin or ethanol. Reactions were initiated by the addition of tissues and allowed to proceed for 30 min at 37° C. in a shaking water bath. Reactions were terminated by addition of 0.1 ml ice-cold 1 M HClO4, and 10 mM EDTA. Samples were kept on ice for 30 min and centrifuged to obtained clear supernatants. Contents of 5-HT, 5-HIAL, 5-HTOL and 5-HIAA in the supernatants were analyzed by HPLC as described before (Rooke et al. (2000) J. Med. Chem. 43:4169).

[10] = test system: 5-HT metabolism in hamster liver slices; assay: 5-HT metabolism catalyzed by hamster liver slices; assay type: cell-based
Description: as §3

[11] = test system: isolated hamster liver mitochondria; settings: cited from earlier work

Compound: 4′-Bromoisoflavone 7-ω-Ethoxycarbonylpentyl Ether [Analog 26]
π (hydrophobic constant of the 4′-substituent) [1]: 0.86

Compound: 7-Ethoxycarbonylpentyl-4′-Aminoisoflavone [Analog 33]
π (hydrophobic constant of the 4′-substituent) [1]: −1.23

IC50 (MAO): 8.6 µM
Compound: O=c1c(-c2ccccc2)coc2cc(O)ccc12 [Analog 1]

Compound: COc1ccc2c(=O)c(-c3ccc(O)cc3)coc2c1 [Analog 2, 7-Methoxy-4′-Hydroxyisoflavone]
π (hydrophobic constant of the 4′-substituent) [1]: −0.67

Compound: COc1ccc2c(=O)c(-c3ccccc3)coc2c1 [Analog 3, 7-Methoxyisoflavone]
π (hydrophobic constant of the 4′-substituent) [1]: 0.00

Compound: CCOC(=O)CCCCCOc1ccc2c(=O)c(-c3ccccc3)coc2c1 [Analog 7, 7-O-Ethoxycarbonylpentylisoflavone]
π (hydrophobic constant of the 4′-substituent) [1]: 0.00

IC50 (ALDH-2): 0.14 to 8 µM
Compound: CC(=O)Oc1ccc2c(=O)c(-c3ccccc3)coc2c1 [Analog 10]

IC50 (ALDH-2): 0.14 to 8 µM
Compound: O=C1c2ccccc2C(=O)N1CCCCOc1ccc2c(=O)c(-c3ccccc3)coc2c1 [Analog 14]
MAO inhibition (in words) (MAO): none of the 4′-H series (analogs 3, 5, 7, 9, 12 and 14) had any effect on MAO | EtOH intake suppression, % (golden hamsters): 37 ± 3%

IC50 (ALDH-2): 0.14 to 8 µM
Compound: O=c1c(-c2ccc(O)cc2)coc2cc(OCn3nnc4ccccc43)ccc12 [Analog 18]

melting point: 213 to 214 °C
Compound: CCOC(=O)c1oc2cc(O)ccc2c(=O)c1-c1ccccc1 [Analog 20, 2-Ethoxycarbonyl-7-Hydroxyisoflavone]

ALDH-2 inhibition (in words) (ALDH-2): no effect on ALDH-2 activity
Compound: CCOC(=O)c1oc2cc(O)ccc2c(=O)c1-c1ccccc1 [Analog 20]

melting point: 257 to 258 °C
Compound: O=C(O)c1oc2cc(O)ccc2c(=O)c1-c1ccccc1 [Analog 21, 2-Carboxy-7-Hydroxyisoflavone]

IC50 (MAO): 1.5 µM
Compound: O=c1c(-c2ccc(F)cc2)coc2cc(O)ccc12 [Analog 23]

Compound: CCOC(=O)CCCCCOc1ccc2c(=O)c(-c3ccc(F)cc3)coc2c1 [Analog 24, 7-O-Ethoxycarbonylpentyl-4′-Fluoroisoflavone]
π (hydrophobic constant of the 4′-substituent) [1]: 0.14

melting point: 266 to 268 °C
Compound: O=c1c(-c2ccc(Br)cc2)coc2cc(O)ccc12 [Analog 25, 7-Hydroxy-4′-Bromoisoflavone]

IC50 (MAO): 1 µM
Compound: O=c1c(-c2ccc(Br)cc2)coc2cc(O)ccc12 [Analog 25]

Compound: CCOC(=O)CCCCCOc1ccc2c(=O)c(-c3ccc([N+](=O)[O-])cc3)coc2c1 [Analog 28, 7-O-Ethoxycarbonylpentyl-4′-Nitroisoflavone]
π (hydrophobic constant of the 4′-substituent) [1]: −0.28

IC50 (MAO): 9 µM
Compound: Cc1ccc(-c2coc3cc(O)ccc3c2=O)cc1 [Analog 29]

Compound: CCOC(=O)CCCCCOc1ccc2c(=O)c(-c3ccc(C)cc3)coc2c1 [Analog 30, 7-O-Ethoxycarbonylpentyl-4′-Methylisoflavone]
π (hydrophobic constant of the 4′-substituent) [1]: 0.56

IC50 (MAO): 12 µM and > 9 µM
Compound: Nc1ccc(-c2coc3cc(O)ccc3c2=O)cc1 [Analog 32]

melting point: 143 to 144 °C
Compound: COc1ccc2c(=O)c(-c3ccccc3)coc2c1OC [Analog 34, 7,8-Dimethoxyisoflavone]

Compound: COc1ccc2c(=O)c(-c3ccccc3)coc2c1OC [Analog 34]
Potency for MAO inhibition compared with counterpart analogs (in words) (MAO): substantially decreased potencies for MAO inhibition | ALDH-2 inhibition (in words) (ALDH-2): completely abolished ALDH-2 inhibitory activities

melting point: 103 to 104 °C
Compound: CCc1ccc2c(=O)c(-c3ccccc3)coc2c1 [Analog 35, 7-Ethylisoflavone]

IC50 (MAO): 12 µM
Compound: O=c1c(-c2ccc(O)cc2)coc2cc(O)ccc12 [Analog 40]
EtOH intake suppression, % (golden hamsters): 22 ± 5%

Compound: CCO [Ethanol, ethanol]
Effect on 5-HT metabolism (in words) [2]: did not effect 5-HT metabolism | Effect on 5-HT metabolism (in words) [3]: did not effect 5-HT metabolism

Compound: O=C(O)CCCCCOc1ccc2c(=O)c(-c3ccc(O)cc3)coc2c1 [Hexzein, 7-O-ω-carboxypentyldaidzein]
Concentration found in the liver (in words) ([4]; hamster, in vivo): pharmacologically relevant concentrations | Ethanol intake reduced by ([5]; 2 mg/g hexzein-Chow): 18.3±3.8% | Ethanol intake reduced by ([5]; 4 mg/g hexzein-Chow): 47.8±7.4% | Ethanol intake reduced by ([5]; 5 mg/g hexzein-Chow): 56.5±5.4% | EtOH intake suppression, % (golden hamsters): 69 ± 12%

Compound: Daidzin [Analog 42]
Concentration found in the liver (in words) ([4]; hamsters on compound-Chow): no daidzin could be detected | Ethanol intake (in words) ([6]; administered orally): does not affect hamster ethanol intake | Ethanol intake (in words) ([6]; ethanol-preferring Syrian golden hamsters): selectively suppress ethanol intake | urine [5-HTOL]/[5-HIAA] ratio [7]: increased urine [5-HTOL]/[5-HIAA] ratio | Ethanol intake (in words) (rats): selectively suppress ethanol intake | Effect on 5-HT metabolism (in words) [2]: did not effect 5-HT metabolism | Effect on 5-HT metabolism (in words) [3]: did not effect 5-HT metabolism | Effect on ethanol intake (in words) ([5]; oral in chow, similar manner and equivalent dose range): failed to reduce ethanol intake | Conversion of 5-HT and DA into 5-HIAA and DOPAC [8]: inhibits the conversion of monoamines | 5-HT depletion [9]: not 5-HT depletion | 5-HTOL formation [9]: increases in the formation of 5-HTOL | 5-HIAA formation ([9]; 1 μM 5-HT, 30 min at 37° C.): inhibited 5-HIAA formation | 5-HT depletion [10]: not 5-HT depletion | 5-HTOL formation [10]: increases in the formation of 5-HTOL | 5-HIAA formation ([10]; 1 μM 5-HT, 30 min at 37° C.): inhibited 5-HIAA formation | EtOH intake suppression, % (golden hamsters): about 55% | Conversion of 5-HT and DA into 5-HIAA and DOPAC [11]: inhibits the conversion of monoamines

Reference: US7368434B2, “Compounds useful for the inhibition of ALDH” (The Endowment for Research in Human Biology, Inc., priority 2002, dated 2008)
